The data set in a line: In-vitro particle size distribution of the aerosol at the mouthpiece. The format is physicochemical. On the procedure:
Percentage of inhaled mass is a measured quantity, and represents the amount of aerosolized medicament which would be inhaled by a patient. Chamber percent is measured and represents the amount remaining in the chamber 22. MMAD is the mass median aerodynamic size of the aerosolized droplets 79, and FPF<5 μm denotes the fine particle fraction under 5 microns, which represents a particle size distribution well suited for delivery to the deep lung. Inhaled mass may be measured by a variety of means, such as by scintigraphy, or by washing the device or component thereof, eluting the drug and directly measuring, e.g. by titration. Inhaled mass measurements are described, for example, in European Standard EN13544-1, which is incorporated by reference herein.
In this Example an in-vitro delivered dose and particle size distribution (PSD) of the device of FIG. 1 was measured, using a dose of 400 mg of amikacin (125 mg/ml; 3.2 ml). Thus, the in-vitro percentage inhaled mass of amikacin sulfate at the mouthpiece under simulated patient breathing was quantified. Under the following conditions: Tidal Volume (TV) was 500 mL; Respiratory rate (RR) was 15 and an inspiratory to expiratory ratio was 2:3. Three devices were tested. Also, an in-vitro particle size distribution (PSD) at the was determined. Mass balance was determined at the end of the first inhaled mass test run. Breathing parameters of the ventilator were verified pre- and post-inhaled mass test runs. The experimental set up is depicted in FIG. 9.

The structures appear in SMILES notation.

The values below come from patent publication US9675768B2, “Aerosolization device” (Nektar Therapeutics, priority 2008, dated 2017).

With `NCC[C@H](O)C(=O)N[C@@H]1C[C@H](N)[C@@H](O[C@H]2O[C@H](CN)[C@@H](O)[C@H](O)[C@H]2O)[C@H](O)[C@H]1O[C@H]1O[C@H](CO)[C@@H](O)[C@H](N)[C@H]1O.O=S(=O)(O)O.O=S(=O)(O)O` [amikacin, amikacin sulfate], the “Fine Particle fraction of less than 5 microns (FPF<5.0 μm)” value was “about 66%”. The “Fine Particle Dose of less than 5 microns (FPD<5.0 μm)” value (400 mg dose) is “about 240 mg”. In addition, the “Mass Median Aerodynamic Diameter (MMAD) of the aerosolized particles” value (three hand-held devices) was 3.7-3.8 μm.
